Measurements taken from US20250250230A1, “HETEROCYCLIC COMPOUND” (TAKEDA PHARMACEUTICAL COMPANY LIMITED, priority 2022, published 2025).

Target: T1, human orexin type 2 receptor (Homo sapiens, UniProt O43614)
T1 construct: expressed in transfected cells
T1 sequence (O43614 1-444): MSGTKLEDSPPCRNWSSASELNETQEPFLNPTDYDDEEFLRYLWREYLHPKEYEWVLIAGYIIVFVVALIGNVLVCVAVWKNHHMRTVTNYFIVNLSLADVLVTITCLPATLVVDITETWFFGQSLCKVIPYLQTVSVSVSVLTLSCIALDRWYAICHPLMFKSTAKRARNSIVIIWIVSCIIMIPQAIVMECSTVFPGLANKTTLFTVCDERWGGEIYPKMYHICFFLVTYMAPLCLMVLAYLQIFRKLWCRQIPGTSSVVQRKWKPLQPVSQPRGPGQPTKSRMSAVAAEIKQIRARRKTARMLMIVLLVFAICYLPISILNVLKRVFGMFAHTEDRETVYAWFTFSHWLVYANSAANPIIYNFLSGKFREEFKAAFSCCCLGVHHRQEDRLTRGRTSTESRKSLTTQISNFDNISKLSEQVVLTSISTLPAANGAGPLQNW
Assay: Measurement of orexin type 2 receptor agonist activity (calcium fluorescence, Fluo-4 AM, FDSS)
Format: cell-based
Settings: test compound 3 μM; CHO cells expressing human OX2 receptor; DMSO = 0%, orexin A (human) = 100%
How it was run: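 CHO-K1 cells stably expressing human OX2R were loaded with Fluo-4 AM (30 min 37 °C, 30 min RT) in HEPES-buffered HBSS with 0.1% BSA and probenecid. Calcium fluorescence was followed on FDSS for 2 min after compound addition; activity normalised to DMSO (0%) and 10 nM orexin A (100%).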

| Compound | OX2R agonist activity (3 μM, %) |
| --- | --- |
| Cc1ccc(C2CC2C(=O)N2CC[C@H](NS(C)(=O)=O)C2)c(-c2c(F)cccc2F)c1 (stereo partly drawn) [Example 318, N-{(3S)-1-[(1R,2R)-2-(2′,6′-difluoro-5-methyl [1,1′-biphenyl]-2-yl)cyclopropane-1-carbonyl]pyrrolidin-3-yl}methanesulfonamide, or N-{(3S)-1-[(1S,2S)-2-(2′,6′-difluoro-5-methyl[1,1′-biphenyl]-2-yl)cyclopropane-1-carbonyl]pyrrolidin-3-yl}methanesulfonamide] | 96% |
| CS(=O)(=O)N[C@H]1C[C@H](O)CN(C(=O)[C@@H]2C[C@H]2c2ccccc2-c2c(F)cccc2F)C1 [Example 319, N-{(3S,5S)-1-[(1R,2R)-2-(2′,6′-difluoro[1,1′-biphenyl]-2-yl)cyclopropane-1-carbonyl]-5-hydroxypiperidin-3-yl}methanesulfonamide] | 101% |
| CO[C@@H]1CN(C(=O)[C@@H]2C[C@H]2c2ccccc2-c2c(F)cccc2F)C[C@H]1NS(C)(=O)=O [Example 323, N-{(3R,4R)-1-[(1R,2R)-2-(2′,6′-difluoro[1,1′-biphenyl]-2-yl)cyclopropane-1-carbonyl]-4-methoxypyrrolidin-3-yl}methanesulfonamide] | 96% |
| CS(=O)(=O)N[C@H]1CCN(C(=O)C2(F)CC2c2ccccc2-c2c(F)cccc2F)C1 (stereo partly drawn) [Example 324, N-{(3S)-1-[(1R,2R)-2-(2′,6′-difluoro[1,1′-biphenyl]-2-yl)-1-fluorocyclopropane-1-carbonyl]pyrrolidin-3-yl}methanesulfonamide, or N-{(3S)-1-[(1S,2S)-2-(2′,6′-difluoro[1,1′-biphenyl]-2-yl)-1-fluorocyclopropane-1-carbonyl]pyrrolidin-3-yl}methanesulfonamide] | 96% |
| CS(=O)(=O)N[C@H]1CCCN(C(=O)C2(F)CC2c2ccccc2-c2c(F)cccc2F)C1 (stereo partly drawn) [Example 325, N-{(3S)-1-[(1R,2R)-2-(2′,6′-difluoro[1,1′-biphenyl]-2-yl)-1-fluorocyclopropane-1-carbonyl]piperidin-3-yl}methanesulfonamide, or N-{(3S)-1-[(1S,2S)-2-(2′,6′-difluoro[1,1′-biphenyl]-2-yl)-1-fluorocyclopropane-1-carbonyl]piperidin-3-yl}methanesulfonamide] | 96% |
| O=C([C@@H]1C[C@H]1c1ccccc1-c1c(F)cccc1F)N1CC[C@H](NS(=O)(=O)N2CCC2)C1 [Example 326, N-{(3S)-1-[(1R,2R)-2-(2′,6′-difluoro[1,1′-biphenyl]-2-yl)cyclopropane-1-carbonyl]pyrrolidin-3-yl}azetidine-1-sulfonamide] | 89% |
| CC1(C(=O)N2CCC2CNS(C)(=O)=O)CC1c1ccccc1-c1c(F)cccc1F (stereo not drawn) [Example 327, N-({1-[2-(2′,6′-difluoro[1,1′-biphenyl]-2-yl)-1-methylcyclopropane-1-carbonyl]azetidin-2-yl}methyl)methanesulfonamide optical isomer] | 100% |
| CS(=O)(=O)N[C@H]1CCN(C(=O)C2C(c3ccccc3-c3c(F)cccc3F)C2(F)F)C1 (stereo partly drawn) [Example 328, N-{(3S)-1-[(1R,3R)-3-(2′,6′-difluoro[1,1′-biphenyl]-2-yl)-2,2-difluorocyclopropane-1-carbonyl]pyrrolidin-3-yl}methanesulfonamide, or N-{(3S)-1-[(1R,3R)-3-(2′,6′-difluoro[1,1′-biphenyl]-2-yl)-2,2-difluorocyclopropane-1-carbonyl]pyrrolidin-3-yl}methanesulfonamide] | 94% |
| CS(=O)(=O)N[C@H]1CCCN(C(=O)C2C(c3ccccc3-c3c(F)cccc3F)C2(F)F)C1 (stereo partly drawn) [Example 330, N-{(3S)-1-[(1R,3R)-3-(2′,6′-difluoro[1,1′-biphenyl]-2-yl)-2,2-difluorocyclopropane-1-carbonyl]piperidin-3-yl}methanesulfonamide, or N-{(3S)-1-[(1S,3S)-3-(2′,6′-difluoro[1,1′-biphenyl]-2-yl)-2,2-difluorocyclopropane-1-carbonyl]piperidin-3-yl}methanesulfonamide] | 91% |
| CS(=O)(=O)NC1CN(C(=O)[C@@H]2C[C@@]2(F)c2ccccc2-c2c(F)cccc2F)CC1(F)F (stereo partly drawn) [Example 331, N-{(3R)-1-[(1S,2S)-2-(2′,6′-difluoro[1,1′-biphenyl]-2-yl)-2-fluorocyclopropane-1-carbonyl]-4,4-difluoropyrrolidin-3-yl}methanesulfonamide, or N-{(3S)-1-[(1S,2S)-2-(2′,6′-difluoro[1,1′-biphenyl]-2-yl)-2-fluorocyclopropane-1-carbonyl]-4,4-difluoropyrrolidin-3-yl}methanesulfonamide] | 96% |
| CS(=O)(=O)N[C@H]1C[C@H](O)CN(C(=O)[C@@H]2C[C@@]2(F)c2ccccc2-c2c(F)cccc2F)C1 [Example 332, N-{(3S,5S)-1-[(1S,2S)-2-(2′,6′-difluoro[1,1′-biphenyl]-2-yl)-2-fluorocyclopropane-1-carbonyl]-5-hydroxypiperidin-3-yl}methanesulfonamide] | 95% |
| CS(=O)(=O)N[C@@H]1CN(C(=O)[C@@H]2C[C@@]2(F)c2ccccc2-c2c(F)cccc2F)CCC1(F)F [Example 333, N-{(3R)-1-[(1S,2S)-2-(2′,6′-difluoro[1,1′-biphenyl]-2-yl)-2-fluorocyclopropane-1-carbonyl]-4,4-difluoropiperidin-3-yl}methanesulfonamide] | 99% |
| O=C([C@@H]1C[C@H]1c1ccccc1-c1c(F)cccc1F)N1CC[C@H]1CNS(=O)(=O)N1CCC1 [Example 334, N-({(2S)-1-[(1R,2R)-2-(2′,6′-difluoro[1,1′-biphenyl]-2-yl)cyclopropane-1-carbonyl]azetidin-2-yl}methyl)azetidine-1-sulfonamide] | 96% |
| CNS(=O)(=O)N[C@H]1CCN(C(=O)[C@@H]2C[C@H]2c2ccccc2-c2c(F)cccc2F)C1 [Example 335, N-{(3S)-1-[(1R,2R)-2-(2′,6′-difluoro[1,1′-biphenyl]-2-yl)cyclopropane-1-carbonyl]pyrrolidin-3-yl}-N′-methylsulfuric diamide] | 96% |
| CNS(=O)(=O)NC[C@@H]1CN(C(=O)[C@@H]2C[C@H]2c2ccccc2-c2c(F)cccc2F)CCO1 [Example 337, N-({(2S)-4-[(1R,2R)-2-(2′,6′-difluoro[1,1′-biphenyl]-2-yl)cyclopropane-1-carbonyl]morpholin-2-yl}methyl)-N′-methylsulfuric diamide] | 100% |
| O=C([C@@H]1C[C@H]1c1ccccc1-c1c(F)cccc1F)N1CCO[C@H](CNS(=O)(=O)N2CCC2)C1 [Example 338, N-({(2S)-4-[(1R,2R)-2-(2′,6′-difluoro[1,1′-biphenyl]-2-yl)cyclopropane-1-carbonyl]morpholin-2-yl}methyl)azetidine-1-sulfonamide] | 98% |
| CNS(=O)(=O)NC[C@@H]1CCN1C(=O)[C@@H]1C[C@H]1c1ccccc1-c1c(F)cccc1F [Example 339, N-({(2S)-1-[(1R,2R)-2-(2′,6′-difluoro[1,1′-biphenyl]-2-yl)cyclopropane-1-carbonyl]azetidin-2-yl}methyl)-N′-methylsulfuric diamide] | 103% |
| CS(=O)(=O)NC1CCC2CN(C(=O)[C@@H]3C[C@H]3c3ccccc3-c3c(F)cccc3F)CC21F (stereo partly drawn) [Example 340, N-{(3aR,4R,6aS)-2-[(1R,2R)-2-(2′,6′-difluoro[1,1′-biphenyl]-2-yl)cyclopropane-1-carbonyl]-3a-fluorooctahydrocyclopenta[c]pyrrol-4-yl}methanesulfonamide, or N-{(3aS,4S,6aR)-2-[(1R,2R)-2-(2′,6′-difluoro[1,1′-biphenyl]-2-yl)cyclopropane-1-carbonyl]-3a-fluorooctahydrocyclopenta[c]pyrrol-4-yl}methanesulfonamide] | 94% |
| CS(=O)(=O)N[C@H]1C[C@@H](O)CN(C(=O)[C@@H]2C[C@@]2(F)c2ccccc2-c2c(F)cccc2F)C1 [Example 341, N-{(3S,5R)-1-[(1S,2S)-2-(2′,6′-difluoro[1,1′-biphenyl]-2-yl)-2-fluorocyclopropane-1-carbonyl]-5-hydroxypiperidin-3-yl}methanesulfonamide] | 101% |
| CS(=O)(=O)NC1(CF)CCN(C(=O)[C@@H]2C[C@H]2c2ccccc2-c2c(F)cccc2F)C1 (stereo partly drawn) [Example 342, N-[(3R)-1-[(1R,2R)-2-(2′,6′-difluoro[1,1′-biphenyl]-2-yl)cyclopropane-1-carbonyl]-3-(fluoromethyl)pyrrolidin-3-yl]methanesulfonamide, or N-[(3S)-1-[(1R,2R)-2-(2′,6′-difluoro[1,1′-biphenyl]-2-yl)cyclopropane-1-carbonyl]-3-(fluoromethyl)pyrrolidin-3-yl]methanesulfonamide] | 101% |
